pIC50, pKd: −log10 of the molar value. Active and inactive are the calls of the source. The calls are words filed in the database; no cut-off is given here.
Key:
[1] = biological target: T1, Signal transducer and activator of transcription 3 (Homo sapiens, UniProt P40763); assay: Inhibition of STAT3 in human MDA-MB-468 cells assessed as reduction in Bcl-XL expression at 1 to 30 uM incubated for 24 hrs by Western blot analysis; type: cell-based; details: dose 1-30 µM
Homo sapiens = species: Homo sapiens; assay: Selectivity ratio of Kd for STAT3 I643S/Q635G mutant (unknown origin) expressed in Escherichia coli to Kd for wild type STAT3 (unknown origin) expressed in Escherichia coli by CM5 sensor chip immobilization based SPR assay
[2] = Binding affinity to STAT3 C712G mutant (unknown origin) expressed in Escherichia coli by CM5 sensor chip immobilization based SPR assay; design: species or system Homo sapiens
MDA-MB-468 [3] = assay: Antimigratory activity against human MDA-MB-468 cells assessed as reduction in cell migration incubated for 24 hrs by transwell study based analysis; type: functional; details: dose 10-30 µM
[4] = Binding affinity to STAT3 I643S/Q635G mutant (unknown origin) expressed in Escherichia coli by CM5 sensor chip immobilization based SPR assay; design: species or system Homo sapiens
[5] = Binding affinity to STAT3 K591A/S611G mutant (unknown origin) expressed in Escherichia coli by CM5 sensor chip immobilization based SPR assay; design: species or system Homo sapiens
MDA-MB-468 [6] = assay: Effect on STAT3 expression in human MDA-MB-468 cells at 1 to 30 uM incubated for 24 hrs by Western blot analysis; type: functional, cell-based; details: dose 1-30 µM
[7] = biological target: T1, Signal transducer and activator of transcription 3; assay: Binding affinity to STAT3 (unknown origin) expressed in Escherichia coli by CM5 sensor chip immobilization based SPR assay
[8] = Binding affinity to STAT3 K591A mutant (unknown origin) expressed in Escherichia coli by CM5 sensor chip immobilization based SPR assay; design: species or system Homo sapiens
[9] = biological target: T1, Signal transducer and activator of transcription 3; assay: Displacement of fluorescein-labeled pYLPQTV-NH2 from STAT3 SH2 domain (unknown origin) by fluorescence polarization assay
MDA-MB-468 [10] = assay: Antiproliferative activity against human MDA-MB-468 cells harboring active STAT3 assessed as reduction in cell growth incubated for 24 hrs by CCK8 assay; type: functional, cell-based; details: MDA-MB-468, 24 h
MCF7 = assay: Antiproliferative activity against human MCF7 cells assessed as reduction in cell growth incubated for 24 hrs by CCK8 assay; type: functional, cell-based; details: MCF7, 24 h
DU-145 = assay: Antiproliferative activity against human DU-145 cells harboring active STAT3 assessed as reduction in cell growth incubated for 24 hrs by CCK8 assay; type: functional, cell-based; details: DU-145, 24 h
[11] = biological target: T2, Signal transducer and activator of transcription 1-alpha/beta (Homo sapiens) (UniProt P42224); assay: Inhibition of STAT1 in human MDA-MB-468 cells assessed as reduction in STAT1 phosphorylation at 1 to 30 uM incubated for 24 hrs by Western blot analysis; type: cell-based; details: dose 1-30 µM
T2 sequence (whole entry): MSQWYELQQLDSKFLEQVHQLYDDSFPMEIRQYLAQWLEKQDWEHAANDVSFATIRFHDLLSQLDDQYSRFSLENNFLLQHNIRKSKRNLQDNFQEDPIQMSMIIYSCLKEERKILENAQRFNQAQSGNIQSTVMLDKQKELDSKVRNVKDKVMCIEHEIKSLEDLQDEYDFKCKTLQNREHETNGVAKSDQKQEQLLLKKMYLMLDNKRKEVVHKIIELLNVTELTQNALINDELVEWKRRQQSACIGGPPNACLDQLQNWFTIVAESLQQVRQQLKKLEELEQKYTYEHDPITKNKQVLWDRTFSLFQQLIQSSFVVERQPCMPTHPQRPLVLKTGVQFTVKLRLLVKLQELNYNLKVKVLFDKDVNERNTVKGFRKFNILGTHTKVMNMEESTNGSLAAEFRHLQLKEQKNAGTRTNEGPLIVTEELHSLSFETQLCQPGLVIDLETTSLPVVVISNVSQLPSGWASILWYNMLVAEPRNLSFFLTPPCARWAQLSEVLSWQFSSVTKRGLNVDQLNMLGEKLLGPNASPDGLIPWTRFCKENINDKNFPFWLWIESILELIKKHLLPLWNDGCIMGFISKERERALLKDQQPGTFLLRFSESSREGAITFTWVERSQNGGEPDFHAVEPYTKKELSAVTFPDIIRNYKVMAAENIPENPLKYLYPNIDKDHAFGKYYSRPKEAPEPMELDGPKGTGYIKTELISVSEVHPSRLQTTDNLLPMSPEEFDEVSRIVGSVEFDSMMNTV

[12] = biological target: T1, Signal transducer and activator of transcription 3; assay: Inhibition of STAT3 in human MDA-MB-468 cells assessed as reduction in STAT3 Y705 residue phosphorylation incubated for 24 hrs by Western blot analysis; type: cell-based; details: dose 1-30 µM
[13] = biological target: T3, Signal transducer and activator of transcription 5A (Homo sapiens) (UniProt P42229); assay: Inhibition of STAT5 in human MDA-MB-468 cells assessed as reduction in STAT5 phosphorylation at 1 to 30 uM incubated for 24 hrs by Western blot analysis; type: cell-based; details: dose 1-30 µM
T3 sequence (whole entry): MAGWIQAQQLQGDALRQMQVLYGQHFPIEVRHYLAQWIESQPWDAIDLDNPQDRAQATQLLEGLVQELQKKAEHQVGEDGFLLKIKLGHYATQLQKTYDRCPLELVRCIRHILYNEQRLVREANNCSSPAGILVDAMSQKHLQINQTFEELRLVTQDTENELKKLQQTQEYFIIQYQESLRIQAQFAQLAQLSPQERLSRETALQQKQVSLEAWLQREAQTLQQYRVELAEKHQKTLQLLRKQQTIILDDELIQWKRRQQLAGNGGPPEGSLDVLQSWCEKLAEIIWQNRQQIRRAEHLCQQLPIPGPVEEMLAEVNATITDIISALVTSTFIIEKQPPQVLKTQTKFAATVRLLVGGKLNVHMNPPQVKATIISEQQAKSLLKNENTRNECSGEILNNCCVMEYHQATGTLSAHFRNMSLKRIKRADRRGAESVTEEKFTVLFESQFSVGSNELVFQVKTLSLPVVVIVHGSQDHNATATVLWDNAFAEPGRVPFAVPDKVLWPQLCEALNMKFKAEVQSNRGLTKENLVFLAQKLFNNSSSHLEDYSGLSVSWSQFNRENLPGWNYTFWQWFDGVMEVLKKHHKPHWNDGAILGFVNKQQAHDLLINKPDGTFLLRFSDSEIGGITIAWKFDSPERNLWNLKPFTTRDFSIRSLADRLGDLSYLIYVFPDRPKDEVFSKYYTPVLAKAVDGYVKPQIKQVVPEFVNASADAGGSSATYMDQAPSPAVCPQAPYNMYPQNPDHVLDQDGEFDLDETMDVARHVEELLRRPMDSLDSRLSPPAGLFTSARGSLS

[14] = biological target: T1, Signal transducer and activator of transcription 3; assay: Inhibition of STAT3-dependent transcriptional activity in human HeLa cells transfected with p-Luc-TKS3 assessed as reduction in luciferase expression incubated for 24 hrs by dual luciferase reporter gene assay; type: cell-based
MDA-MB-231 = assay: Antiproliferative activity against human MDA-MB-231 cells harboring active STAT3 assessed as reduction in cell growth incubated for 24 hrs by CCK8 assay; type: functional, cell-based; details: MDA-MB-231, 24 h
[15] = Binding affinity to STAT3 R595G mutant (unknown origin) expressed in Escherichia coli by CM5 sensor chip immobilization based SPR assay; design: species or system Homo sapiens

T1 sequence (P40763 whole entry): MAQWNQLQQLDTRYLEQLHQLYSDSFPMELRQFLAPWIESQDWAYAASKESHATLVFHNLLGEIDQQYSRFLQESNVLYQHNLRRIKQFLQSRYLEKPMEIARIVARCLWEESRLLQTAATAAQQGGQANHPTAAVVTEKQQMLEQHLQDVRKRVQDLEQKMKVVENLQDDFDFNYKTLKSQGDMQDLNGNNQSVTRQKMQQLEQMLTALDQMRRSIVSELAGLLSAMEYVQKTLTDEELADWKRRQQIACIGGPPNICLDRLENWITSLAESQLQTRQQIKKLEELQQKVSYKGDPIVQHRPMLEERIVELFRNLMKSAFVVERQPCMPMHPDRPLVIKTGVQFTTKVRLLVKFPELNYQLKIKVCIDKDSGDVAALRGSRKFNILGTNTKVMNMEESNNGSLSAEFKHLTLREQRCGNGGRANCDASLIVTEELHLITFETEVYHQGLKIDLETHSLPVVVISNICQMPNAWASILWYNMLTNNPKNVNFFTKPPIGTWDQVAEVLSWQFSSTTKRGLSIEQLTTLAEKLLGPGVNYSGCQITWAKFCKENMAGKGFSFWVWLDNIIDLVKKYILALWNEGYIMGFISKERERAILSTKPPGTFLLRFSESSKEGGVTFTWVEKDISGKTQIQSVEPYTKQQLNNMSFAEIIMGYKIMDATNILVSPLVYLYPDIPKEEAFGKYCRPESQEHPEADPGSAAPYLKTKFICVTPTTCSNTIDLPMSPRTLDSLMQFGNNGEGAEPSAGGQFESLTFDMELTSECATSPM

- inhibition [1]: Active
- Selectivity ratio (Homo sapiens): 4
- Activity [7]: Dose-dependent effect
- pKd [7]: 5.34
- inhibition [9]: Active
- pIC50 (MDA-MB-468 [10]): 5.29
- pIC50 (MCF7): 3.87
- pIC50 (DU-145): 4.20
- inhibition [11]: Active
- inhibition [12]: Dose-dependent effect
- inhibition [13]: Active
- pIC50 [14]: 4.90
- inhibition [14]: Dose-dependent effect
- pIC50 (MDA-MB-231): 4.86
Compound: O=C1c2ccccc2C(=O)c2cc(S(=O)(=O)Nc3ccc(O)cc3)ccc21
- pKd [2]: 4.73
- Activity (MDA-MB-468 [3]): Dose-dependent effect
- pKd [4]: 4.64
- pKd [5]: 5.32
- Activity (MDA-MB-468 [6]): inactive
- pKd [8]: 5.42
- pKd [15]: 5.19

Reference: ChEMBL document CHEMBL4715784, “Screening and biological evaluation of a novel STAT3 signaling pathway inhibitor against cancer” (Bioorg Med Chem Lett, 2016)
